In patent US9802985B2, “Pharmaceutical composition for treatment of the pulmonary form of altitude sickness caused by lack of oxygen and reduced air pressure” (APEPTICO FORSCHUNG UND E[…], priority 2012, dated 2017):
Entries after “also recorded” stand apart in the source; their conditions may differ. No end group written: not given here.

What was measured:
[1] = tested on: interleukin-6 (IL-6) secretion in human full blood; experiment: ex vivo release of interleukin-6 from fresh human full blood cultures (ELISA); type: cell-based; conditions: for Concentration of IL-6: human full blood, 24 hours, n=5
Experimental: In this study, fresh full blood was used; this is a recognized prediction model for the assessment of the inflammatory reaction in vivo.
The aim of this study was to determine the pro-inflammatory signal capacity of the peptide SEQ ID NO: 1.
Full blood (FB) cultures were carried out by pipetting 1 ml FB in depressions of 24-well plates. In each experiment, unstimulated and stimulated control cultures were included.
If possible, the substances and stimulants to be examined were always used in the same volume in each well in a given experiment, which is not greater than 10% of the total volume in a well. Unstimulated controls took place with PBS. Volume adjustment and dilutions for different treatments were likewise carried out with PBS.
The content of each well was mixed and the plates were incubated at 37° C. and 5% CO2 for 24 hours. After incubation, the content of each well was transferred into a fresh 1.5 ml microtube and centrifuged at 8000 to 9000×g for 15 minutes. The supernatant of each sample was divided individually to two 1.5 ml reaction vessels and stored at −20° C. until use.
Interleukin-6 was quantified by means of a specific ELISA (Human IL-6 ELISA-Set, BD Biosciences, Cat. No. 555220) using an anti-human-IL-6 antibody as capture antibody, a biotinylated anti-human IL-6 detection antibody, avidin horseradish peroxidise conjugate as enzyme reagent and recombinant IL-6 as standard. Absorption measurement at 450 nm was carried out with the Packard Fusion reader.
The results of each plate were stored and evaluated with the fusion data analysis software. […]

[2] = tested on: pulmonary form of altitude sickness in rats; experiment: experimental rat model of the pulmonary form of altitude sickness (physical activity under reduced oxygen and air pressure); type: in vivo, rat (Sprague Dawley)
Source text: Physical exertion under conditions of reduced oxygen and air pressure, such as occur at high altitudes, are the 2 main factors which lead to the development of the pulmonary form of altitude sickness. Therefore, the selected rat model, in which the rats carried out physical activity under conditions of reduced oxygen and reduced air pressure, simulates a physically strenuous ascent to high altitudes. This takes place without carrying out a prior acclimatization. This corresponds to the scenario such as is to be found in the case of mountaineers who suffer from the pulmonary form of altitude sickness at high altitudes. In the model which was used, the rats develop the typical symptoms for the pulmonary form of altitude sickness, as is to be read in the “intensity of the pulmonary form of altitude sickness”, the increased protein concentration in the lung fluid and the histological appearance of the lung tissue. It is further to be noted that the lung damage in this model is not caused by administration of endotoxins, microbes or other agents which are damaging to the lung. […] Also, no specific strain of rat was used for this experiment. Therefore, this rat model is well suited to investigate a medicament for the treatment of the pulmonary form of altitude sickness.
Laboratory rats (Sprague Dawley rats) carried out physical activity through external stimulation for 48 hours under conditions of reduced oxygen and air pressure. Here, the air pressure was reduced to a value below 430 Torr, so that a height of over 4500 m was simulated. A prior acclimatization of the rats to the height of over 4500 m was not carried out. During this time, the rats were able to undertake a 15-20 minute pause every 4 hours in order to take in water and food. […] The lungs were then removed and the intensity of the pulmonary form of altitude sickness was determined (FIG. 1), the protein content in the lung fluid was determined (FIG. 2) and the histological appearance of the lung tissue was determined (FIG. 3).

[3] = biological target: T1, amiloride-sensitive epithelial sodium ion channel (ENaC) (Homo sapiens, UniProt P37088+P51168+P51170); experiment: whole cell patch clamp test with A549 cells (Example 3); type: cell-based; conditions: for effect on the Na+ flow (in words) / effect on the Na+ flow / ENaC (in words): whole cell patch clamp; for effect on the Na+ flow / ENaC (in words): 300 nM in bath solution, n=3
T1 construct: the human alveolar epithelial cell line A549 was used; endogenous in cells; host or cells: A549 (human alveolar epithelial cell line)
T1 sequence (P51168 whole entry): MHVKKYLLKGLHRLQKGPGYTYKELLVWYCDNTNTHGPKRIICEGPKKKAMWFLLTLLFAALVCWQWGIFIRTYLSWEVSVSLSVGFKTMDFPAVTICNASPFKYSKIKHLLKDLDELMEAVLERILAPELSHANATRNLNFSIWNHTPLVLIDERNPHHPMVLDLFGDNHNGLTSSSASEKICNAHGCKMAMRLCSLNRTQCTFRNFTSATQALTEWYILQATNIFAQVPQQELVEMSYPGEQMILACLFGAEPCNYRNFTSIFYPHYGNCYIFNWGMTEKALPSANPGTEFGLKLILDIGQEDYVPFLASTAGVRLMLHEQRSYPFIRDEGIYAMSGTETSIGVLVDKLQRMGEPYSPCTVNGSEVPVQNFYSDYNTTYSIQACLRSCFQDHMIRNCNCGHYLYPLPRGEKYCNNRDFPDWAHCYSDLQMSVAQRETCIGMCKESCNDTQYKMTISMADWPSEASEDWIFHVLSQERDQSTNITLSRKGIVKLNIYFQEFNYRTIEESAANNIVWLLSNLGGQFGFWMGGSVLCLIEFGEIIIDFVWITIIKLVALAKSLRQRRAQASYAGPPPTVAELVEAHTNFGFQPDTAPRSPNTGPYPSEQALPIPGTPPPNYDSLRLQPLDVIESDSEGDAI
T1 sequence (P37088 whole entry): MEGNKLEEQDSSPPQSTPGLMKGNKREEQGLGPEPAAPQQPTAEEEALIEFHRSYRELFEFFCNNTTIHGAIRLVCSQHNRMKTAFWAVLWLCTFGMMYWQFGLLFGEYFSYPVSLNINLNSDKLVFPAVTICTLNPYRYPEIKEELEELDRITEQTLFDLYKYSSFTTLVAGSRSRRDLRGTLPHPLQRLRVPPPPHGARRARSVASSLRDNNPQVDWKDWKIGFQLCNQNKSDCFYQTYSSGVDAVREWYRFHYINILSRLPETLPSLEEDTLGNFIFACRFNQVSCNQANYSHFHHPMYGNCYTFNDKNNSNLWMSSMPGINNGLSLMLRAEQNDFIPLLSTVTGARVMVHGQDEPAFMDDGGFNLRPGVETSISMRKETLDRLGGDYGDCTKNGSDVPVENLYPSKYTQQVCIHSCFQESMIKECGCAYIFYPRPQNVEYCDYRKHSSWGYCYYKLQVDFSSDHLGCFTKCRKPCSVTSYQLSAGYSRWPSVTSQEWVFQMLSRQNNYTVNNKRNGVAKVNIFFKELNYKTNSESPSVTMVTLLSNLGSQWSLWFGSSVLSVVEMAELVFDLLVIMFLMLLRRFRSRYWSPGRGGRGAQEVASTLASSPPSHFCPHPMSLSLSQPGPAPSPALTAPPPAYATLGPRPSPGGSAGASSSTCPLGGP
T1 sequence (P51170 whole entry): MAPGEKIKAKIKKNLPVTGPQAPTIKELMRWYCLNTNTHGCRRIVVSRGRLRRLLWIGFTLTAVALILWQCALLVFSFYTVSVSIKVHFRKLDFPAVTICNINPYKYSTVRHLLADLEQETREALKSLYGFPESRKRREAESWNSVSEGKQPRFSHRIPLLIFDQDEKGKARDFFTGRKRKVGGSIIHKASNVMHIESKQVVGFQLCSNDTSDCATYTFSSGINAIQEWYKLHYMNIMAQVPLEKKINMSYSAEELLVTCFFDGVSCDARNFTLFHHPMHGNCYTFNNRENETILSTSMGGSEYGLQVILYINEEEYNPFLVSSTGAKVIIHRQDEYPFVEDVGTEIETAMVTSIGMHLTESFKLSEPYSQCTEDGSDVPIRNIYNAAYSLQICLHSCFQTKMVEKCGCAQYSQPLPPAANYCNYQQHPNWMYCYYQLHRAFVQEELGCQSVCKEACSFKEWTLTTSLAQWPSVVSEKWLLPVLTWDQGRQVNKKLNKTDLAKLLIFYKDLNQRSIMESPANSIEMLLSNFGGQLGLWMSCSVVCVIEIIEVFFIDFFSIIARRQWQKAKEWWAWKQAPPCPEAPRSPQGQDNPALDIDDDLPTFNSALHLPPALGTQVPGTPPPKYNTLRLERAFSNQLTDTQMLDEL
Source text: According to patent application EP 2 009 023 A1, the so-called transepithelial electrical resistance (TEER) test was used for the screening of anti-lung oedema active ingredient candidates. The “TEER test” is not an established test for the prediction of fluid clearance in lung oedemas (this test can not be found in the relevant scientific literature and also has no relevance with regard to the cells being used (Calu-3 cells) in a model for gas exchange in the human lung). In the present example—in addition to the peptide according to the invention—the peptides […], […] and (cyclized) […] were investigated by means of a whole cell patch clamp assay, an established methodology for the measurement of ion movement over the cell membranes and especially for the measuring of the sodium transport over the cell membrane of alveolar epithelial cells (Eaton et al., Fed. Proc. 45 (1986), 2707; Hamill et al., Pflugers Arch. 391 (1981) 85-100. Here it was to be tested whether or not the peptides can activate the amiloride-sensitive epithelial sodium flow in lung cells.
The whole cell patch clamp test using A549 cells took place as described in Hazemi et al. (J. Med. Chem. 53 (2010), 8021-8029). […] In cases where an increase of the flow after addition of a given peptide was observed, an amiloride solution (to […] final concentration) was added to the bath solution—after the flow reached a stationary state —, in order to differentiate the amiloride-sensitive from the amiloride-insensitive flow. The amiloride-sensitive flow was then calculated by subtracting the flow value after addition of amiloride (amiloride-insensitive) from the flow value of the stationary state before the addition of amiloride. For each peptide, three experiments were carried out in different A549 cells (n=3).

[4] = biological target: T2, amiloride-sensitive sodium ion channel (ENaC) (Homo sapiens, UniProt P37088+P51168+P51170); experiment: whole cell patch clamp on A549 cells, amiloride-sensitive sodium ion flow, EC50 (Example 4); type: cell-based
T2 construct: Macroscopic sodium ion flows were derived from human lung epithelial cells A549; endogenous in cells; host or cells: A549 (human lung epithelial cells)
T2 sequence (P37088 whole entry): as the sequence (P37088 whole entry) above
T2 sequence (P51168 whole entry): as the sequence (P51168 whole entry) above
T2 sequence (P51170 whole entry): as the sequence (P51170 whole entry) above
Source text: The activity of the individual peptides is indicated as EC50 (in nM).

[5] = intratracheal 100, 300 and 600 μg/rat (especially 300 μg), 4 hours after administration

For `C[C@@H]1NC(=O)CNC(=O)[C@H](CCC(=O)O)NC(=O)[C@@H]2CCCN2C(=O)[C@H]([C@@H](C)O)NC(=O)[C@H](CCC(=O)O)NC(=O)[C@H](CCCNC(=N)N)NC(=O)[C@H](CCC(N)=O)NC(=O)CNC(=O)[C@@H](N)CSSC[C@@H](C(=O)O)NC(=O)[C@H](Cc2ccc(O)cc2)NC(=O)[C@H](Cc2c[nH]c3ccccc23)NC(=O)[C@@H]2CCCN2C(=O)[C@H](CCCCN)NC(=O)[C@H](C)NC(=O)[C@H](CCC(=O)O)NC1=O` [SEQ ID NO: 1], the “induction of IL-6 secretion (in words)” value ([1]; human full blood cultures of five healthy donors, all tested concentrations (10 μg/ml to 1 ng/ml)) was “did not induce any detectable amount of IL-6 secretion; also recorded: induced no detectable level of IL-6”, the “TNF receptor binding activity (concluded from absent IL-6 release)” value ([1]; human full blood ex vivo model) was “does not have TNF receptor binding activity” and the “Concentration of IL-6” value [1] was “less than 0.5 pg/ml”. The “Concentration of IL-6” value ([1]; test concentration 1 ng/ml) was “less than 0.5 pg/ml”, the “Concentration of IL-6” value ([1]; test concentration 3 ng/ml) was “less than 0.5 pg/ml” and the “Concentration of IL-6” value ([1]; test concentration 1 mg/ml) was “less than 0.5 pg/ml”. For the same compound, the “histological appearance of lung tissue” value ([2]; 4 hours after intratracheal administration) was “comparable with healthy lung tissue of the control rats”, the “intensity of the pulmonary form of altitude sickness” value [2, 5] was “led to reduction of the intensity of the pulmonary form of altitude sickness” and the “protein concentration in the lung fluid” value [2, 5] was “led to reduction of the protein concentration in the lung fluid”. For the same compound, the “amiloride-sensitive Na+ flow after addition of the peptide” value ([3]; 240 nM, increased from 50 pA, flow minus amiloride-insensitive flow) was 1037 pA, the “effect on the Na+ flow (in words)” value ([3]; 240 nM in bath solution) was “induced an increase of the sodium flow over that of the control value” and the “effect on the Na+ flow (in words)” value ([3]; 240 nM in bath solution, listed as AP301) was “immediate intensifying effect”. For the same compound, the “active Na+ flow after addition of the peptide (maximum)” value ([3]; whole cell, clamped at -100 mV, 240 nM in bath solution, control value 86 pA±5 pA) was 1073±15 pA.

`N=C(N)NC(=O)c1nc(Cl)c(N)nc1N` [amiloride] was tested, and the “Na+ flow after subsequent addition of amiloride” value ([3]; after AP301 240 nM, amiloride 100 mM in bath solution) was 36 pA.

CGQREAPAGAAAKPWYC [SEQ ID NO: 19] was tested, and the “EC50 (nM), cellular amiloride-sensitive sodium ion flow” value ([4]; A549 cells, whole cell patch clamp, concentration at 50% of maximum increase of flow) was “No activity” and the “activity on the amiloride-sensitive sodium ion channel (in words)” value ([4]; A549 lung cells) was “not active”.

“CGTKPIELGPDEPKAVC (not fully specified (bridges); also: cyclic)” was tested, and the “effect on the Na+ flow / ENaC (in words)” value [3] was “no activating effect; also recorded: no effect on the flow; also recorded: none of the other three peptides had an influence on the flow”.

With QRETPEGAEAKPWY the “effect on the Na+ flow / ENaC (in words)” value [3] was “no activating effect; also recorded: no effect on the flow; also recorded: none of the other three peptides had an influence on the flow”.

TKPIELGPDEPKAV was tested, and the “effect on the Na+ flow / ENaC (in words)” value [3] was “no activating effect; also recorded: no effect on the flow; also recorded: none of the other three peptides had an influence on the flow”.
